Measurements from patent publication US6737383B1, “Herbicidal oxadiazolidines” (priority 1999, dated 2004).

How the values were obtained:
[1] = tested on: bamyardgrass; assay: Test B flood test barnyardgrass; assay type: in vivo, Echinochloa crus-galli
Method in brief: (§1)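 Each value is a visual injury score relative to controls, with 10 meaning complete control and 0 no effect. Evaluation took place twelve to sixteen days after the 2-leaf-stage plants were treated and kept in the greenhouse.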

[2] = tested on: surinam grass; assay: Test B pre/postemergence surinam grass; assay type: in vivo, Brachiaria decumbens
Method in brief: (§2)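 Herbicidal effect was estimated by eye on a ten-point control scale after plants spent twelve to sixteen days in a greenhouse following soil or foliar treatment. Foliar sprays targeted plants at one to four leaves; all doses were formulated in a non-phytotoxic solvent with surfactant.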

[3] = tested on: rice; assay: Test B flood test rice; assay type: in vivo, Oryza sativa
Method in brief: as §1

[4] = tested on: sugar beet; assay: Test B pre/postemergence sugar beet; assay type: in vivo, Beta vulgaris; conditions: for Plant response rating, Sugarbeets: scale of 0 to 10 where 0 is no effect and 10 is complete control
Method in brief: as §2

[5] = tested on: velvetleaf; assay: Test B pre/postemergence velvetleaf; assay type: in vivo, Abutilon theophrasti; conditions: for Plant response rating, Velvetleaf: scale of 0 to 10 where 0 is no effect and 10 is complete control
Method in brief: as §2

[6] = tested on: blackgrass; assay: Test B pre/postemergence blackgrass; assay type: in vivo, Alopecurus myosuroides
Method in brief: as §2

[7] = tested on: pigweed; assay: Test B pre/postemergence pigweed; assay type: in vivo, Amaranthus retroflexus; conditions: for Plant response rating, Redroot pigweed: scale of 0 to 10 where 0 is no effect and 10 is complete control
Method in brief: as §2

[8] = tested on: corn; assay: Test B pre/postemergence corn; assay type: in vivo, Zea mays
Method in brief: as §2

[9] = tested on: duck salad; assay: Test B flood test duck salad; assay type: in vivo, Heteranthera limosa
Method in brief: as §1

[10] = tested on: soybean; assay: Test B pre/postemergence soybean; assay type: in vivo, Glycine max; conditions: for Plant response rating, Soybean: scale of 0 to 10 where 0 is no effect and 10 is complete control
Method in brief: as §2

[11] = tested on: purple nutsedge; assay: Test B pre/postemergence purple nutsedge; assay type: in vivo, Cyperus rotundus; conditions: for Plant response rating, Nutsedge: scale of 0 to 10 where 0 is no effect and 10 is complete control
Method in brief: as §2

[12] = tested on: smallflower flatsedge; assay: Test B flood test smallflower flatsedge; assay type: in vivo, Cyperus difformis
Method in brief: as §1

[13] = tested on: giant foxtail; assay: Test B pre/postemergence giant foxtail; assay type: in vivo, Setaria faberii
Method in brief: as §2

[14] = tested on: morningglory; assay: Test B pre/postemergence morningglory; assay type: in vivo, Ipomoea hederacea; conditions: for Plant response rating, Morningglory: scale of 0 to 10 where 0 is no effect and 10 is complete control
Method in brief: as §2

[15] = tested on: rape; assay: Test B pre/postemergence rape; assay type: in vivo, Brassica napus; conditions: for Plant response rating, Rape: scale of 0 to 10 where 0 is no effect and 10 is complete control
Method in brief: as §2

[16] = Rate 62 g/ha, flood test species, Pre-emergence, visual evaluation after twelve to sixteen days
[17] = Rate 125 g/ha, under heading Pre-emergence, flood test species, visual evaluation after twelve to sixteen days
[18] = Rate 250 g/ha, Pre-emergence (flood test species), scale 0 to 10, 0 is no effect, 10 is complete control
[19] = Rate 500 g/ha, Pre-emergence, flood test species, scale 0 to 10 (0 no effect, 10 complete control)
[20] = Postemergence, Rate 500 g/ha, scale of 0 to 10 where 0 is no effect and 10 is complete control
[21] = Preemergence, Rate 62 g/ha, scale of 0 to 10 where 0 is no effect and 10 is complete control
[22] = Preemergence, Rate 125 g/ha, scale of 0 to 10 where 0 is no effect and 10 is complete control
[23] = Preemergence, Rate 250 g/ha, scale 0 to 10, 0 is no effect, 10 is complete control
[24] = Preemergence, Rate 500 g/ha, scale 0 to 10, 0 is no effect, 10 is complete control
[25] = Rate 62 g/ha, Postemergence, scale 0 to 10, 0 no effect, 10 complete control
[26] = Rate 125 g/ha, Postemergence, scale 0 to 10, 0 is no effect, 10 is complete control
[27] = Postemergence, Rate 250 g/ha, scale 0 to 10

## CC(C)N(C(=O)n1oc(=O)n(C(C)CCl)c1=O)c1ccc(Cl)cc1 (stereo not shown) [Compound 456]
[1]; [16]
  Plant response rating, Barnyardgrass (0 to 10 scale, 0 is no effect, 10 is complete control): 0
[1]; [17]
  Barnyardgrass plant response rating (0 to 10 scale, 0 is no effect, 10 is complete control): 0
[1]; [18]
  Barnyardgrass plant response rating: 0
[1]; [19]
  Barnyardgrass plant response rating: 0
[2]; Postemergence, Rate 250 g/ha, scale 0 to 10, 0 no effect, 10 complete control
  B. signalgrass plant response rating: 0
[2]; [20]
  B. signalgrass plant response rating: 2
[2]; [21]
  Plant response rating, B. signalgrass: 0
[2]; [22]
  Plant response rating, B. signalgrass: 0
[2]; [23]
  B. signalgrass plant response rating: 0
[2]; [24]
  B. signalgrass plant response rating: 2
[2]; [25]
  B. signalgrass plant response rating: 0
[2]; [26]
  B. signalgrass plant response rating: 0
[3]; [16]
  Plant response rating, Rice (0 to 10 scale, 0 is no effect, 10 is complete control): 0
[3]; [17]
  Rice plant response rating (0 to 10 scale, 0 is no effect, 10 is complete control): 0
[3]; [18]
  Rice plant response rating: 0
[3]; [19]
  Rice plant response rating: 0
[4]; [27]
  Sugarbeets plant response rating: 0
[4]; Preemergence, Rate 62 g/ha
  Plant response rating, Sugarbeets: 0
[4]; Preemergence, Rate 125 g/ha
  Plant response rating, Sugarbeets: 2
[4]; [23]
  Sugarbeets plant response rating: 2
[4]; [24]
  Sugarbeets plant response rating: 3
[4]; [25]
  Sugarbeets plant response rating: 0
[4]; [26]
  Sugarbeets plant response rating: 0
[5]; [27]
  Velvetleaf plant response rating: 0
[5]; Preemergence, Rate 62 g/ha
  Plant response rating, Velvetleaf: 0
[5]; Preemergence, Rate 125 g/ha
  Plant response rating, Velvetleaf: 0
[5]; [23]
  Velvetleaf plant response rating: 1
[5]; [24]
  Velvetleaf plant response rating: 2
[5]; [25]
  Velvetleaf plant response rating: 0
[5]; [26]
  Velvetleaf plant response rating: 0
[6]; [27]
  Blackgrass plant response rating: 4
[6]; [20]
  Blackgrass plant response rating: 8
[6]; [21]
  Plant response rating, Blackgrass: 0
[6]; [22]
  Plant response rating, Blackgrass: 2
[6]; [23]
  Blackgrass plant response rating: 3
[6]; [24]
  Blackgrass plant response rating: 6
[6]; [25]
  Blackgrass plant response rating: 4
[6]; [26]
  Blackgrass plant response rating: 4
[7]; [27]
  Redroot pigweed plant response rating: 3
[7]; Preemergence, Rate 62 g/ha
  Plant response rating, Redroot pigweed: 0
[7]; Preemergence, Rate 125 g/ha
  Plant response rating, Redroot pigweed: 2
[7]; [23]
  Redroot pigweed plant response rating: 3
[7]; [24]
  Redroot pigweed plant response rating: 5
[7]; [25]
  Redroot pigweed plant response rating: 0
[7]; [26]
  Redroot pigweed plant response rating: 0
[8]; [27]
  Corn plant response rating: 0
[8]; [20]
  Corn plant response rating: 0
[8]; [21]
  Plant response rating, Corn: 0
[8]; [22]
  Plant response rating, Corn: 0
[8]; [23]
  Corn plant response rating: 0
[8]; [24]
  Corn plant response rating: 0
[8]; [25]
  Corn plant response rating: 0
[8]; [26]
  Corn plant response rating: 0
[9]; [16]
  Plant response rating, Ducksalad (0 to 10 scale, 0 is no effect, 10 is complete control): 0
[9]; [17]
  Ducksalad plant response rating (0 to 10 scale, 0 is no effect, 10 is complete control): 0
[9]; [18]
  Ducksalad plant response rating: 0
[9]; [19]
  Ducksalad plant response rating: 0
[10]; [27]
  Soybean plant response rating: 2
[10]; Preemergence, Rate 62 g/ha
  Plant response rating, Soybean: 0
[10]; Preemergence, Rate 125 g/ha
  Plant response rating, Soybean: 0
[10]; [23]
  Soybean plant response rating: 0
[10]; [24]
  Soybean plant response rating: 0
[10]; [25]
  Soybean plant response rating: 1
[10]; [26]
  Soybean plant response rating: 3
[11]; [27]
  Nutsedge plant response rating: 0
[11]; Preemergence, Rate 62 g/ha
  Plant response rating, Nutsedge: 0
[11]; Preemergence, Rate 125 g/ha
  Plant response rating, Nutsedge: 0
[11]; [23]
  Nutsedge plant response rating: 0
[11]; [24]
  Nutsedge plant response rating: 0
[11]; [25]
  Nutsedge plant response rating: 0
[11]; [26]
  Nutsedge plant response rating: 0
[12]; [16]
  Plant response rating, S. Flatsedge (0 to 10 scale, 0 is no effect, 10 is complete control): 0
[12]; [17]
  S. Flatsedge plant response rating (0 to 10 scale, 0 is no effect, 10 is complete control): 0
[12]; [18]
  S. Flatsedge plant response rating: 0
[12]; [19]
  S. Flatsedge plant response rating: 0
[13]; [27]
  Giant foxtail plant response rating: 3
[13]; [20]
  Giant foxtail plant response rating: 8
[13]; [21]
  Plant response rating, Giant foxtail: 5
[13]; [22]
  Plant response rating, Giant foxtail: 10
[13]; [23]
  Giant foxtail plant response rating: 10
[13]; [24]
  Giant foxtail plant response rating: 10
[13]; [25]
  Giant foxtail plant response rating: 2
[13]; [26]
  Giant foxtail plant response rating: 2
[14]; [27]
  Morningglory plant response rating: 5
[14]; Preemergence, Rate 62 g/ha
  Plant response rating, Morningglory: 0
[14]; Preemergence, Rate 125 g/ha
  Plant response rating, Morningglory: 0
[14]; [23]
  Morningglory plant response rating: 3
[14]; [24]
  Morningglory plant response rating: 3
[14]; [25]
  Morningglory plant response rating: 3
[14]; [26]
  Morningglory plant response rating: 3
[15]; [27]
  Rape plant response rating: 0
[15]; Preemergence, Rate 62 g/ha
  Plant response rating, Rape: 0
[15]; Preemergence, Rate 125 g/ha
  Plant response rating, Rape: 0
[15]; [23]
  Rape plant response rating: 0
[15]; [24]
  Rape plant response rating: 0
[15]; [25]
  Rape plant response rating: 0
[15]; [26]
  Rape plant response rating: 0
